According to a melting point compilation (Tetko et al.; mined from patent text by program, amines drawn as free bases though some values may be those of a salt):

With `c1nc(SC2CCCCC2)c2cc[nH]c2n1` the melting point was 162 to 163 °C.
Work on `C=Cc1c(F)c(F)cc2c(=O)c(C(=O)O)cn(C3CC3)c12` yielded a melting point of 183 to 188 °C.
`CC(C)(C)C(=O)Nc1c(F)cc(F)cc1C#Cc1ccc(SC2CCOCC2)cc1` showed a melting point of 148 to 149 °C.
Compound `COc1cc(OC)cc(N2CCN(C(=O)Nc3cc(C(C)O)c(C)nc3OC)CC2)c1` (stereo unspecified) has a melting point of 124 to 126 °C.
For `COC(=O)c1nc(Cl)sc1-c1ccccc1`, the melting point was 63 to 65 °C.
In the case of `O=C(NCc1ccc(Cl)cc1)c1cn2c3c(cc(CN4CCOCC4)cc3c1=O)OCCC2`, the melting point was 195 to 197 °C.
In the case of `CC(=O)N(O)Cc1ccccc1Nc1c(Cl)cccc1Cl`, the melting point was 165 to 171 °C.
Compound `CCCc1cc(C(=O)O)ccc1OCCCCCCc1cccc(OC)c1OC` has a melting point of 107 to 108 °C.
Compound `O=C(O)C(Cl)=C(Cl)C(=O)O` has a melting point of 107 to 110 °C.
With `O=C(NCCc1nnn[nH]1)C(CS)C(F)(F)F` (stereo unspecified) the melting point was 182 to 184 °C.
Compound `Cc1cc(I)ccc1NC1=CC2=NCN(C)C2=CC1(F)C(=O)NOCC(O)CO` (stereo unspecified) has a melting point of 212 to 213 °C.
With `CN1CCN(c2cccc(Nc3ccc(-c4ccoc4)cc3N)c2)CC1` the melting point was 129 to 130 °C.
For `COC(=O)C1=Cc2cc(Br)ccc2N(C)CCC1`, the melting point was 88 to 89 °C.
For `COc1cc2c(cc1O)C1Cc3c(Cl)cc(OC)c(OC(C)=O)c3CN1CC2` (single isomer, unassigned; (-)), the melting point was 172 to 173 °C.
In the case of `CNCC(O)COc1cccc(Nc2cc(Nc3cccc(C)c3)ncn2)c1` (stereo unspecified), the melting point was 88 to 90 °C.
`CCCc1c(OCCCOc2ccccc2)ccc2c1OC(CCC(=O)O)(CCC(=O)O)CC2O` (stereo unspecified) gave a melting point of 132 °C.
Work on `CC1(C)CCC(C)(C)c2cc(N(Cc3ccc(F)cc3)C(=O)Nc3ccc(C(=O)O)cc3)ccc21` yielded a melting point of 143 to 146 °C.
In the case of `CON=C(C(=O)OC)c1csc(N)n1`, the melting point was 165 °C.
`COC1=CC(=O)C2CC(O[Si](C)(C)C)=CC(OC)C2C1=O` (stereo unspecified) showed a melting point of 108 to 110 °C.
`O=C(NC(=O)c1c(F)cccc1F)Nc1ccc(Cl)c(C(F)(F)F)c1` showed a melting point of 220 °C.
Work on `NC(=O)c1cccnc1N1CCN(CC(O)CO)CC1` (stereo unspecified) yielded a melting point of 140 to 142 °C.
With `COc1cc(C)c(C(O)c2c(O)ccc(Cl)c2C)c(OC)c1OC` (stereo unspecified) the melting point was 140 to 142 °C.
In the case of `Cc1sc(N)c(C(=O)c2ccsc2)c1C`, the melting point was 122 to 123 °C.
`COc1ccc(NC(=O)c2cccc(OC)c2N)cc1` gave a melting point of 168 to 169 °C.
`CCCCCCCCCCCCn1nnnc1Cc1ccccc1` showed a melting point of 50 to 51 °C.
`O=C1CNc2cc(Br)c(F)cc2N1` gave a melting point of 214 to 216 °C.
With `CCCCc1nc2c(N)nc3ccccc3c2n1CCCCON=C(C)C` the melting point was 115 to 117 °C.
With `Cc1c(-c2ccc(O)c(Cl)c2)sc(C=O)c1-c1ccc(O)c(F)c1` the melting point was 227 to 229 °C.
Compound `O=Cc1ccc(CBr)c2ccccc12` has a melting point of 115 to 116 °C.
With `Nc1nc(-c2cc(Cl)ccc2Cl)nc(N2CCCCC2C(=O)O)n1` (stereo unspecified) the melting point was 237 to 240 °C.
In the case of `CCOC(=O)c1cn2c3c(c(F)c(F)cc3c1=O)OCC2C` (stereo unspecified), the melting point was 257 to 258 °C.
In the case of `O=C1CCCc2cc(OCCCCl)ccc21`, the melting point was 85 to 87 °C.
`Cc1cc(C(C)(C)C)c(O)c(C)c1CC(=O)N1CCN(C(=O)Cc2c(C)cc(C(C)(C)C)c(O)c2C)CC1` gave a melting point of 305 to 310 °C.
In the case of `COc1ccc(C=CCCCCCC(=O)O)cc1`, the melting point was 42 to 43 °C.
For `CCOC(=O)c1c(C(F)(F)F)nc(C(F)F)c(C(=O)O)c1NC1CC1`, the melting point was 120 to 122 °C.
Work on `CCCCCCCCCCCCCCCCN(CCCCCCCCCCCCCCCC)C(CCCCN)C(=O)O` (stereo unspecified) yielded a melting point of 124 to 125 °C.
Work on `CCOC(=O)C1=C(C)NC(=S)N(C(=O)OCc2ccccc2)C1c1cccc([N+](=O)[O-])c1` (stereo unspecified) yielded a melting point of 122 to 124 °C.
In the case of `O=C(C1CCN(c2ccncn2)CC1)N1CCN(Cc2ccccc2)CC1`, the melting point was 107 to 108 °C.
`CCON=C(CC)C1=C(OC(=O)c2ccccc2)CC(c2c(C)cc(C)cc2C)CC1=O` (stereo unspecified) showed a melting point of 94 to 95.5 °C.
For `CCOC(=O)c1oc(Br)nc1C`, the melting point was 94.5 to 95.5 °C.
For `Cc1cccc(C)c1OC(C)C(=O)OC1CC(O)C=C2C=CC(C)C(CCC3CC(O)CC(=O)O3)C21` (mixture of isomers), the melting point was 85 to 88 °C.
Work on `Cc1cc(Cl)nc2nc(N3C(=O)c4ccccc4C3CC(=O)N3CCC4(CC3)OCCO4)ccc12` (stereo unspecified) yielded a melting point of 259 to 262 °C.
Work on `CCCCCCCCCCn1c(C)cc(C)c(C#N)c1=O` yielded a melting point of 82 to 83 °C.
Work on `N#CCn1nnc(N)n1` yielded a melting point of 105 to 106 °C.
In the case of `Cc1cc2c(N3CCCC3C)ccc(C#N)c2o1` (stereo unspecified), the melting point was 78 to 80 °C.
`Cn1cc(O)c(=O)c2ccc(C#N)cc21` gave a melting point of 305 °C.
With `Nc1cc(N2CC(COc3ccccc3)OC2=O)ccn1` (stereo unspecified) the melting point was 191 to 192 °C.
`CCOc1cccc(-c2cc(F)c(NC(=O)c3ccccc3CO)c(F)c2)c1` gave a melting point of 94.8 to 99.1 °C.
For `N=C(N)c1cccc(Oc2cc(C(N)=O)cc(Oc3cccc(C(=N)N)c3)n2)c1`, the melting point was > 210 °C.
`Cc1cccc2cc(CN(Cc3cc(C(F)(F)F)cc(C(F)(F)F)c3)c3ncc(N4CCOCC4)cn3)c(N(CC3CC3)CC3CC3)nc12` showed a melting point of 123 to 124 °C.
Work on `CC(C)(C)OC(=O)N1[C@@H](CC2CCCCC2)[C@H](CC2SCCCS2)OC1(C)C` yielded a melting point of 104 to 106 °C.
